How the values were obtained:
velvetleaf = experiment: Test C pre-/postemergence test; type: in vivo, Abutilon theophrasti
How it was run: (§1)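 Seeds were planted and treated preemergence with test chemical in a non-phytotoxic solvent mixture containing surfactant. Postemergence applications of the same formulation went onto plants 2 to 18 cm tall (1- to 4-leaf stage). A dash marks no test result.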

umbrella sedge = experiment: Test C flooded paddy test; type: in vivo, Cyperus difformis; conditions: Flood
How it was run: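 Visual injury ratings against untreated controls, taken 13 to 15 days after compound was added to paddy water standing 3 cm above the soil.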

morningglory = experiment: Test C pre-/postemergence test; type: in vivo, Ipomoea coccinea
How it was run: as §1

barnyardgrass = experiment: Test A pre-/postemergence greenhouse test; type: in vivo, Echinochloa crus-galli; conditions: for Plant response rating, Barnyardgrass: 0 to 100 scale where 0 is no effect and 100 is complete control; for Barnyardgrass plant response rating: 0 to 100 scale
How it was run: (§2)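 Untreated controls served as the reference for visual injury ratings taken about ten days after spraying. The non-phytotoxic solvent/surfactant formulation was applied preemergence to seeded loam and sand and postemergence to plants two to ten cm high.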

crabgrass [1] = experiment: Test C pre-/postemergence test; type: in vivo, Digitaria sanguinalis
How it was run: as §1

johnsongrass = experiment: Test C pre-/postemergence test; type: in vivo, Sorghum halepense
How it was run: as §1

corn [2] = experiment: Test A pre-/postemergence greenhouse test; type: in vivo, Zea mays; conditions: for Plant response rating, Corn: 0 to 100 scale where 0 is no effect and 100 is complete control; for Corn plant response rating: 0 to 100 scale
How it was run: as §2

crabgrass [3] = experiment: Test A pre-/postemergence greenhouse test; type: in vivo, Digitaria sanguinalis; conditions: for Plant response rating, Crabgrass, Large: 0 to 100 scale where 0 is no effect and 100 is complete control; for Crabgrass, Large plant response rating: 0 to 100 scale
How it was run: as §2

[4] = test system: common (oilseed) sunflower; experiment: Test C pre-/postemergence test; type: in vivo, Helianthus annuus
Description: Seeds of plant species selected from blackgrass (Alopecurus myosuroides), downy brome (Bromus tectorum), green foxtail (Setaria viridis), Italian ryegrass (Lolium multiflorum), wheat (Triticum aestivum), wild oat (Avena fatua), catchweed bedstraw (Galium aparine), Russian thistle (Salsola kali), […] (Cynodon dactylon), Surinam grass (Brachiaria decumbens), cocklebur (Xanthium strumarium), corn (Zea mays), crabgrass (Digitaria sanguinalis), woolly cupgrass (Eriochloa villosa), giant foxtail (Setaria faberii), Goosegrass (Eleusin indica), johnsongrass (Sorghum halepense), kochia (Kochia scoparia), lambsquarters (Chenopodium album), morningglory (Ipomoea coccinea), eastern black nightshade (Solanum ptycanthum), yellow nutsedge (Cyperus esculentus), pigweed (Amaranthus retroflexus), common ragweed (Ambrosia elation), soybean (Glycine max), common (oilseed) sunflower (Helianthus annuus), and velvetleaf (Abutilon theophrasti) were planted and treated preemergence with test chemicals formulated in a non-phytotoxic solvent mixture which included a surfactant. At the same time, plants selected from these crop and weed species and also winter barley (Hordeum vulgare), canarygrass (Phalaris minor), and chickweed (Stellaria media) were treated with postemergence applications of some of the test chemicals formulated in the same manner. Plants ranged in height from 2 to 18 cm (1- to 4-leaf stage) for postemergence treatments. […] At time of treatment, test pots were flooded to 3 cm above the soil surface, treated by application of test compounds directly to the paddy water, and then maintained at that water depth for the duration of the test. […] A dash (-) response means no test result.

Italian ryegrass = experiment: Test C pre-/postemergence test; type: in vivo, Lolium multiflorum; conditions: for Plant response rating (0 to 100), Ryegrass, Italian / Plant response rating, Ryegrass, Italian: Postemergence; for Plant response rating, Ryegrass, Italian: scale 0 to 100, 0 no effect, 100 complete control
How it was run: as §1

Goosegrass = experiment: Test C pre-/postemergence test; type: in vivo, Eleusin indica
How it was run: as §1

pigweed = experiment: Test C pre-/postemergence test; type: in vivo, Amaranthus retroflexus
How it was run: as §1

wheat = experiment: Test A pre-/postemergence greenhouse test; type: in vivo, Triticum aestivum; conditions: for Plant response rating, Wheat: 0 to 100 scale where 0 is no effect and 100 is complete control; for Wheat plant response rating: 0 to 100 scale
How it was run: as §2

giant foxtail = experiment: Test C pre-/postemergence test; type: in vivo, Setaria faberii
How it was run: as §1

Surinam grass = experiment: Test C pre-/postemergence test; type: in vivo, Brachiaria decumbens
How it was run: as §1

corn [5] = experiment: Test C pre-/postemergence test; type: in vivo, Zea mays
How it was run: as §1

[6] = 62 g ai/ha, Preemergence, scale 0 to 100
[7] = 125 g ai/ha, preemergence, scale 0 (no effect) to 100 (complete control)
[8] = Postemergence, 125 g ai/ha, scale 0 to 100, 0 no effect, 100 complete control
[9] = Postemergence, 250 g ai/ha, scale 0 to 100, 0 no effect, 100 complete control
[10] = Preemergence, 31 g ai/ha, scale 0 to 100 (0 no effect, 100 complete control)
[11] = preemergence, 250 g ai/ha, scale 0 (no effect) to 100 (complete control)
[12] = Postemergence, 62 g ai/ha, scale 0 to 100, 0 no effect, 100 complete control
[13] = Postemergence, 500 g ai/ha, 0 is no effect, 100 is complete control
[14] = Preemergence, 125 g ai/ha, 0 no effect, 100 complete control

CCn1nc(C(F)(F)F)c(CS(=O)(=O)c2cc(C)cc[n+]2[O-])c1OCC(F)(F)F [Compound 64]
Velvetleaf plant response rating (velvetleaf; [6]): 100
Velvetleaf plant response rating (velvetleaf; [7]): 100
Plant response rating (0 to 100), Velvetleaf (velvetleaf; Postemergence, 31 g ai/ha): 0
Plant response rating (0 to 100), Velvetleaf (velvetleaf; Postemergence, 62 g ai/ha): 0
Plant response rating, Velvetleaf (velvetleaf; [8]): 0
Plant response rating, Velvetleaf (velvetleaf; [9]): 40
Plant response rating, Velvetleaf (velvetleaf; [10]): 45
Velvetleaf plant response rating (velvetleaf; [11]): 100
Plant response rating, Sedge, Umbrella (umbrella sedge; 62 g ai/ha, scale 0 to 100 (0 no effect, 100 complete control)): 80
Plant response rating, Sedge, Umbrella (umbrella sedge; 250 g ai/ha, scale 0 to 100, 0 no effect, 100 complete control, 13 to 15 days): 100
Morningglory plant response rating (morningglory; [6]): 50
Morningglory plant response rating (morningglory; [7]): 55
Plant response rating (0 to 100), Morningglory (morningglory; Postemergence, 31 g ai/ha): 0
Plant response rating, Morningglory (morningglory; [12]): 0
Plant response rating, Morningglory (morningglory; [8]): 0
Plant response rating, Morningglory (morningglory; [9]): 0
Plant response rating, Morningglory (morningglory; [10]): 0
Morningglory plant response rating (morningglory; [11]): 80
Plant response rating, Barnyardgrass (barnyardgrass; Postemergence, 125 g ai/ha): 90
Barnyardgrass plant response rating (barnyardgrass; [13]): 90
Barnyardgrass plant response rating (barnyardgrass; [14]): 70
Plant response rating, Barnyardgrass (barnyardgrass; Preemergence, 500 g ai/ha): 100
Crabgrass, Large plant response rating (crabgrass [1]; [6]): 100
Crabgrass, Large plant response rating (crabgrass [1]; [7]): 100
Plant response rating (0 to 100), Crabgrass, Large (crabgrass [1]; Postemergence, 31 g ai/ha): 0
Plant response rating, Crabgrass, Large (crabgrass [1]; [12]): 0
Plant response rating, Crabgrass, Large (crabgrass [1]; [8]): 0
Plant response rating, Crabgrass, Large (crabgrass [1]; [9]): 20
Plant response rating, Crabgrass, Large (crabgrass [1]; [10]): 98
Crabgrass, Large plant response rating (crabgrass [1]; [11]): 100
Johnsongrass plant response rating (johnsongrass; [6]): 98
Johnsongrass plant response rating (johnsongrass; [7]): 100
Plant response rating (0 to 100), Johnsongrass (johnsongrass; Postemergence, 31 g ai/ha): 0
Plant response rating, Johnsongrass (johnsongrass; [12]): 0
Plant response rating, Johnsongrass (johnsongrass; [8]): 0
Plant response rating, Johnsongrass (johnsongrass; [9]): 0
Plant response rating, Johnsongrass (johnsongrass; [10]): 55
Johnsongrass plant response rating (johnsongrass; [11]): 100
Plant response rating, Corn (corn [2]; Postemergence, 125 g ai/ha): 40
Corn plant response rating (corn [2]; [13]): 50
Corn plant response rating (corn [2]; [14]): 0
Plant response rating, Corn (corn [2]; Preemergence, 500 g ai/ha): 60
Plant response rating, Crabgrass, Large (crabgrass [3]; Postemergence, 125 g ai/ha): 80
Crabgrass, Large plant response rating (crabgrass [3]; [13]): 90
Crabgrass, Large plant response rating (crabgrass [3]; [14]): 80
Plant response rating, Crabgrass, Large (crabgrass [3]; Preemergence, 500 g ai/ha): 100
Sunflower plant response rating [4, 6]: 30
Sunflower plant response rating [4, 7]: 80
Plant response rating, Sunflower [4, 10]: 0
Sunflower plant response rating [4, 11]: 95
Ryegrass, Italian plant response rating (Italian ryegrass; [6]): 50
Ryegrass, Italian plant response rating (Italian ryegrass; [7]): 90
Plant response rating (0 to 100), Ryegrass, Italian (Italian ryegrass; 31 g ai/ha): 0
Plant response rating (0 to 100), Ryegrass, Italian (Italian ryegrass; 62 g ai/ha): 0
Plant response rating, Ryegrass, Italian (Italian ryegrass; 125 g ai/ha): 30
Plant response rating, Ryegrass, Italian (Italian ryegrass; 250 g ai/ha): 45
Ryegrass, Italian plant response rating (Italian ryegrass; [11]): 100
Goosegrass plant response rating (Goosegrass; [6]): 100
Goosegrass plant response rating (Goosegrass; [7]): 100
Plant response rating (0 to 100), Goosegrass (Goosegrass; Postemergence, 31 g ai/ha): 0
Plant response rating, Goosegrass (Goosegrass; [12]): 0
Plant response rating, Goosegrass (Goosegrass; [8]): 0
Plant response rating, Goosegrass (Goosegrass; [9]): 55
Plant response rating, Goosegrass (Goosegrass; [10]): 95
Goosegrass plant response rating (Goosegrass; [11]): 100
Pigweed plant response rating (pigweed; [6]): 95
Pigweed plant response rating (pigweed; [7]): 100
Plant response rating (0 to 100), Pigweed (pigweed; Postemergence, 31 g ai/ha): 0
Plant response rating (0 to 100), Pigweed (pigweed; Postemergence, 62 g ai/ha): 0
Plant response rating, Pigweed (pigweed; [8]): 0
Plant response rating, Pigweed (pigweed; [9]): 5
Plant response rating, Pigweed (pigweed; [10]): 95
Pigweed plant response rating (pigweed; [11]): 100
Plant response rating, Wheat (wheat; Postemergence, 125 g ai/ha): 50
Wheat plant response rating (wheat; [13]): 60
Wheat plant response rating (wheat; [14]): 40
Plant response rating, Wheat (wheat; Preemergence, 500 g ai/ha): 70
Foxtail, Giant plant response rating (giant foxtail; [6]): 100
Foxtail, Giant plant response rating (giant foxtail; [7]): 100
Plant response rating (0 to 100), Foxtail, Giant (giant foxtail; Postemergence, 31 g ai/ha): 0
Plant response rating, Foxtail, Giant (giant foxtail; [12]): 0
Plant response rating, Foxtail, Giant (giant foxtail; [8]): 0
Plant response rating, Foxtail, Giant (giant foxtail; [9]): 45
Plant response rating, Foxtail, Giant (giant foxtail; [10]): 85
Foxtail, Giant plant response rating (giant foxtail; [11]): 100
Surinam Grass plant response rating (Surinam grass; [6]): 100
Surinam Grass plant response rating (Surinam grass; [7]): 100
Plant response rating (0 to 100), Surinam Grass (Surinam grass; Postemergence, 31 g ai/ha): 0
Plant response rating (0 to 100), Surinam Grass (Surinam grass; Postemergence, 62 g ai/ha): 0
Plant response rating, Surinam Grass (Surinam grass; [8]): 0
Plant response rating, Surinam Grass (Surinam grass; [9]): 40
Plant response rating, Surinam Grass (Surinam grass; [10]): 95
Surinam Grass plant response rating (Surinam grass; [11]): 100
Corn plant response rating (corn [5]; [6]): 95
Corn plant response rating (corn [5]; [7]): 95
Plant response rating (0 to 100), Corn (corn [5]; Postemergence, 31 g ai/ha): 0
Plant response rating, Corn (corn [5]; [12]): 0
Plant response rating, Corn (corn [5]; [8]): 0
Plant response rating, Corn (corn [5]; [9]): 0
Plant response rating, Corn (corn [5]; [10]): 0
Corn plant response rating (corn [5]; [11]): 95

Reference: patent publication US20100298141A1, “SUBSTITUTED PYRIDINE N-OXIDE HERBICIDES” (E. I. DU PONT DE NEMOURS AND COMPANY, priority 2007, published 2010)
